Reference: US20240376087A1, “PYRAZOLE AMIDE BASED COMPOUNDS AND USES AGAINST BREAST CANCER THEREOF” (COUNCIL OF SCIENTIFIC AND INDUSTRIAL RESEARCH AN INDIAN …, priority 2021, published 2024)

Test system: MDA MB 231 cells
Test: Wound healing (scratch wound) assay
Type: cell-based, human
Settings: 24 hr
Description: Wound healing assay was performed to understand the antimigration effects of NIIST-AC-1. The confluent monolayers of cells after making the scratch were treated with the test compounds at different concentrations for 24 hr. After the time interval, the wound closure by the migration of the cells was observed under the phase-contrast microscope (Nikon Eclipse TS100), and images were captured using NIS-Elements 3.21.00 imaging software at different time points (0, 24 h) at 4× magnification. The wound area was quantified using ImageJ 1.52p software.

COc1cc(-c2cc(C(=O)NCc3cc(C(F)(F)F)cc(C(F)(F)F)c3)[nH]n2)cc(OC)c1OC [I-8, N-(3,5-bis(trifluoromethyl)benzyl)-3-(3,4,5-trimethoxyphenyl)-1H-pyrazole-5-carboxamide]
cell migration: cell migration inhibition was evident
